{
  "source": "patent US11390606B2",
  "about": "“Pyridazinone compounds and uses thereof” (Edgewise Therapeutics, Inc., priority 2018, dated 2022)",
  "data": [
    {"molecular_target": "T1, skeletal myofibrils (Rabbit Psoas), myosin ATPase activity", "T1 construct": "Rabbit Psoas Prep 11 (0.25 mg/mL)", "experiment": "Skeletal Myofibril ATPase Assay", "type": "biochemical", "settings": "skeletal myofibrils (Rabbit Psoas 0.25 mg/mL), PK/LDH-coupled NADH absorbance at 340 nm", "protocol": "Overview: Myosin ATPase activity is assessed by using a coupled reaction system, in which ADP generated by the myosin ATPase function is coupled to the disappearance of NADH through the pyruvate kinase/lactate dehydrogenase (PK-LDH) system. Myosin ATPase activity produces ADP, which is used as a substrate for PK to produce pyruvate and regenerate ATP. The pyruvate is then used as a substrate by LDH to oxidize NADH to NAD+. The rate of the reaction is monitored through the time-dependent disappearance of NADH using absorbance at 340 nm. Inhibition of ATPase activity by the assayed compounds is indicated by a reduced rate of NADH loss, relative to vehicle-treated controls, over the experimental time window. To assess the selectivity of the assayed compounds for skeletal myofibrils, the compounds are counter-screened in cardiac myofibrils.\nMaterials: The following stock solutions and reagents were used in the Skeletal Myofibril ATPase Assay:\nStock Solutions of pCa buffer. Combine PIPES, CaCl2, and EGTA solutions with 70 mL of water. Adjust pH to 7.0 and bring final volume to 100 mL.\nBuffer A & Buffer B. Buffers were stored on ice until use.\nSkeletal Myofibril ATPase Assay Procedure: BSA, ATP, NADH, PEP, and DTT solutions were thawed at room temperature, then transferred to ice. Pellet-frozen myofibrils were transferred with approximately twice the required volume into a sufficiently large tube and capped. Myofibrils were thawed by rolling in a water bath for approximately 15 min at room temperature and cooled on ice. Buffers A and B were prepared by adjusting volumes as necessary for required number of wells and stored on ice. 0.5 μL of the compounds to be assayed were added into wells. 25 μL of Buffer A was dispensed into the wells, followed by 25 μL of Buffer B. The wells were measured for absorbance at 340 nm, using a kinetic protocol in which the wells are read every 1.5-2 min for 45 min. The slope of the data was approximated by subtracting the minimum absorbance value from the maximum value for each well. This was accomplished either in the SoftMax Pro software or in a spreadsheet program such as Excel. Using GraphPad Prism 8.0, the data was normalized by assigning a value of 100% to the 1% DMSO vehicle wells. Typically, a normalized 0% value was simply assigned to a (Max−Min) value of 0. The normalized data was fit to a Four Parameter Logistic sigmoidal equation, constraining the bottom to be 0 or greater. Compounds of Table 1 to 4 were tested and results of the assay appear in Table 5 herein. A=IC50 is less than or equal to 10 μM; B=IC50 is greater than 10 μM and less than 100 μM; C=IC50 is greater than 100 μM.", "units": {"IC50": "µM"}, "values": [
      {"smiles": "Cn1ncc2cc(-c3ccc(=O)n(Cc4ccc(Cl)cc4)n3)ccc21", "note": "[Compound 119, 2-(4-chlorobenzyl)-6-(1-methyl-1H-indazol-5-yl)pyridazin-3(2H)-one]", "IC50": "> 100"},
      {"smiles": "CN(C)S(=O)(=O)c1ccc(-c2ccc(=O)n(Cc3ccc(Cl)cc3)n2)cc1", "note": "[Compound 120, 4-(1-(4-chlorobenzyl)-6-oxo-1,6-dihydropyridazin-3-yl)-N,N-dimethyl-benzenesulfonamide]", "IC50": "> 100"},
      {"smiles": "CC1(C)C(=O)Nc2ccc(-c3ccc(=O)n(Cc4ccc(Cl)cc4)n3)cc21", "note": "[Compound 121, 5-(1-(4-chlorobenzyl)-6-oxo-1,6-dihydropyridazin-3-yl)-3,3-dimethylindolin-2-one]", "IC50": "> 100"},
      {"smiles": "O=C1Cc2cc(-c3ccc(=O)n(Cc4ccc(Cl)cc4)n3)ccc2N1", "note": "[Compound 122, 5-(1-(4-chlorobenzyl)-6-oxo-1,6-dihydropyridazin-3-yl)indolin-2-one]", "IC50": "> 100"},
      {"smiles": "CNc1ccc(-c2ccc(=O)n(Cc3ccc(Cl)cc3)n2)cc1", "note": "[Compound 123, 2-(4-chlorobenzyl)-6-(4-(methylamino)phenyl)pyridazin-3(2H)-one]", "IC50": "< 10"},
      {"smiles": "COc1ccc(Cn2nc(-c3ccc(SC)cc3)ccc2=O)cc1", "note": "[Compound 201, 2-(4-methoxybenzyl)-6-(4-(methylthio)phenyl)pyridazin-3(2H)-one]", "IC50": "> 100"},
      {"smiles": "C=Cc1ccc(Cn2nc(-c3ccc(OC)cc3F)ccc2=O)cc1", "note": "[Compound 202, 6-(2-fluoro-4-methoxyphenyl)-2-(4-vinylbenzyl)pyridazin-3(2H)-one]", "IC50": "> 100"},
      {"smiles": "COc1ccc(-c2ccc(=O)n(Cc3ccccc3)n2)cc1", "note": "[Compound 211, 2-benzyl-6-(4-methoxyphenyl)pyridazin-3(2H)-one]", "IC50": "< 10"},
      {"smiles": "COc1ccc(-c2ccc(=O)n(Cc3ccc(Cl)cc3)n2)cc1", "note": "[Compound 212, 2-(4-chlorobenzyl)-6-(4-methoxyphenyl)pyridazin-3(2H)-one]", "IC50": "< 10"},
      {"smiles": "CCOc1ccc(-c2ccc(=O)n(Cc3ccc(Cl)cc3)n2)cc1", "note": "[Compound 213, 2-(4-chlorobenzyl)-6-(4-ethoxyphenyl)pyridazin-3(2H)-one]", "IC50": "< 10"},
      {"smiles": "CCCOc1ccc(-c2ccc(=O)n(Cc3ccc(Cl)cc3)n2)cc1", "note": "[Compound 218, 2-(4-chlorobenzyl)-6-(4-propoxyphenyl)pyridazin-3(2H)-one]", "IC50": "< 10"},
      {"smiles": "COc1ccc(Cn2nc(-c3ccc(Cl)cc3)ccc2=O)cc1", "note": "[Compound 235, 6-(4-chlorophenyl)-2-(4-methoxybenzyl)pyridazin-3(2H)-one]", "IC50": "< 10"},
      {"smiles": "Cc1ccc(-c2ccc(=O)n(Cc3ccc(F)cc3)n2)cc1", "note": "[Compound 236, 2-(4-fluorobenzyl)-6-(p-tolyl)pyridazin-3(2H)-one]", "IC50": "< 10"},
      {"smiles": "COc1ccc(Cn2nc(-c3ccc(Br)cc3)ccc2=O)cc1", "note": "[Compound 237, 6-(4-bromophenyl)-2-(4-methoxybenzyl)pyridazin-3(2H)-one]", "IC50": "< 10"},
      {"smiles": "N#Cc1ccc(Cn2nc(-c3ccc(Br)cc3)ccc2=O)cc1", "note": "[Compound 238, 4-((3-(4-bromophenyl)-6-oxopyridazin-1(6H)-yl)methyl)benzonitrile]", "IC50": "10 to 100"},
      {"smiles": "O=c1ccc(-c2ccc(Br)cc2)nn1Cc1ccccc1", "note": "[Compound 239, 2-benzyl-6-(4-bromophenyl)pyridazin-3(2H)-one]", "IC50": "< 10"},
      {"smiles": "COc1ccc(Cn2nc(-c3ccc(F)cc3)ccc2=O)cc1", "note": "[Compound 240, 6-(4-fluorophenyl)-2-(4-methoxybenzyl)pyridazin-3(2H)-one]", "IC50": "10 to 100"},
      {"smiles": "O=c1ccc(-c2ccc(F)cc2)nn1Cc1cccc(C(F)(F)F)c1", "note": "[Compound 241, 6-(4-fluorophenyl)-2-(3-(trifluoromethyl)benzyl)pyridazin-3(2H)-one]", "IC50": "> 100"},
      {"smiles": "O=c1ccc(-c2ccc(F)cc2)nn1Cc1cccc(F)c1", "note": "[Compound 242, 2-(3-fluorobenzyl)-6-(4-fluorophenyl)pyridazin-3(2H)-one]", "IC50": "< 10"},
      {"smiles": "O=c1ccc(-c2ccc(F)cc2)nn1Cc1ccccc1F", "note": "[Compound 243, 2-(2-fluorobenzyl)-6-(4-fluorophenyl)pyridazin-3(2H)-one]", "IC50": "10 to 100"}
    ]}
  ]
}
